Test results reported in patent publication US12064508B2, “Compositions and methods for nasal administration of drugs to brain and for systemic effect” (priority 2017, dated 2024).

Tested on: nasal cavity
Test: Local safety: histopathology of the nasal cavity
Conditions: intranasal 15 μl/rat twice a day for one week
Procedure: The effect of phospholipid magnesome on the nasal cavity was evaluated in rats.
The animals received the treatments twice a day for one week. […] Sections of the nasal cavity were cut serially at 7 μm thickness and stained with Hematoxylin & Eosin. […] Local toxicity was assessed by evaluating the histopathological alterations in different regions of the nasal cavity (cartilage and turbinate bone, lamina propria and submucosa, mucosal epithelium and lumen).

## CCCCCCCCCCCCOS(=O)(=O)[O-].[Na+] [SLS, Sodium lauryl sulfate]
  histopathological findings in the nasal cavity: minimal proteinaceous material in the lumen and focal aggregations of neutrophils
